Results on 17 compounds are retold here after patent publication US9611269B2, “Azetidinyl phenyl, pyridyl or pyrazinyl carboxamide derivatives as JAK inhibitors” (Incyte Corporation, priority 2011, dated 2017).

Type in all cases: biochemical
In experiment [1] the test system is human JAK1 (a.a. 837-1142) catalytic domain. As to the kind of experiment: In vitro JAK kinase assay (HTRF, 1 mM ATP), JAK1.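 Also: kinase activity followed as phosphorylation of a biotin-tagged peptide, detected by HTRF with Eu-labelled anti-phosphotyrosine antibody and SA-APC, after 1 h reaction at room temperature.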 The note with it: ratio of JAK2 IC50 to JAK1 IC50 at 1 mM ATP.
Protocol: (§1) The catalytic activity of JAK1, JAK2 or JAK3 was assayed by measuring the phosphorylation of a biotinylated peptide. The phosphorylated peptide was detected by homogenous time resolved fluorescence (HTRF). […] Reactions were carried out at room temperature for 1 hour and then stopped with 20 μL 45 mM EDTA, 300 nM SA-APC, 6 nM Eu-Py20 in assay buffer (Perkin Elmer, Boston, Mass.). Binding to the Europium labeled antibody took place for 40 minutes and HTRF signal was measured on a Fusion plate reader (Perkin Elmer, Boston, Mass.).
Experiment [2] deals with human JAK1 (a.a. 837-1142) catalytic domain (Homo sapiens, UniProt P23458). As to the kind of experiment: In vitro JAK kinase assay (HTRF, 1 mM ATP), JAK1.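 Also: kinase activity followed as phosphorylation of a biotin-tagged peptide, detected by HTRF with Eu-labelled anti-phosphotyrosine antibody and SA-APC, after 1 h reaction at room temperature.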 The settings on record: at 1 mM ATP.
Protocol: as §1
The target in experiment [3] is human JAK2 (a.a. 828-1132) catalytic domain (Homo sapiens (Human), UniProt O60674). As to the kind of experiment: In vitro JAK kinase assay (HTRF, 1 mM ATP), JAK2. The note with it: at 1 mM ATP.
Protocol: as §1

Where only a bound is given, the exact number is not on record here.

Chain of human JAK2 (a.a. 828-1132) catalytic domain (O60674 828-1132): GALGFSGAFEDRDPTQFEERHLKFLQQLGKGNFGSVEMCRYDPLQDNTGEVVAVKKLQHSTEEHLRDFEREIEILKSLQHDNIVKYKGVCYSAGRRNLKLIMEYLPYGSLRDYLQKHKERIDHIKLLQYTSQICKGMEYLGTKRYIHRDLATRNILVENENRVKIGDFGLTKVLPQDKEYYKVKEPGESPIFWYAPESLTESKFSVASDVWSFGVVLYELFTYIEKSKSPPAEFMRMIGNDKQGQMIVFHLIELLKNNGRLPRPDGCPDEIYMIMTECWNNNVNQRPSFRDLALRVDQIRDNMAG
Chain of human JAK1 (a.a. 837-1142) catalytic domain (Homo sapiens, UniProt P23458) (P23458 whole entry, looked up, the tested form may be a part): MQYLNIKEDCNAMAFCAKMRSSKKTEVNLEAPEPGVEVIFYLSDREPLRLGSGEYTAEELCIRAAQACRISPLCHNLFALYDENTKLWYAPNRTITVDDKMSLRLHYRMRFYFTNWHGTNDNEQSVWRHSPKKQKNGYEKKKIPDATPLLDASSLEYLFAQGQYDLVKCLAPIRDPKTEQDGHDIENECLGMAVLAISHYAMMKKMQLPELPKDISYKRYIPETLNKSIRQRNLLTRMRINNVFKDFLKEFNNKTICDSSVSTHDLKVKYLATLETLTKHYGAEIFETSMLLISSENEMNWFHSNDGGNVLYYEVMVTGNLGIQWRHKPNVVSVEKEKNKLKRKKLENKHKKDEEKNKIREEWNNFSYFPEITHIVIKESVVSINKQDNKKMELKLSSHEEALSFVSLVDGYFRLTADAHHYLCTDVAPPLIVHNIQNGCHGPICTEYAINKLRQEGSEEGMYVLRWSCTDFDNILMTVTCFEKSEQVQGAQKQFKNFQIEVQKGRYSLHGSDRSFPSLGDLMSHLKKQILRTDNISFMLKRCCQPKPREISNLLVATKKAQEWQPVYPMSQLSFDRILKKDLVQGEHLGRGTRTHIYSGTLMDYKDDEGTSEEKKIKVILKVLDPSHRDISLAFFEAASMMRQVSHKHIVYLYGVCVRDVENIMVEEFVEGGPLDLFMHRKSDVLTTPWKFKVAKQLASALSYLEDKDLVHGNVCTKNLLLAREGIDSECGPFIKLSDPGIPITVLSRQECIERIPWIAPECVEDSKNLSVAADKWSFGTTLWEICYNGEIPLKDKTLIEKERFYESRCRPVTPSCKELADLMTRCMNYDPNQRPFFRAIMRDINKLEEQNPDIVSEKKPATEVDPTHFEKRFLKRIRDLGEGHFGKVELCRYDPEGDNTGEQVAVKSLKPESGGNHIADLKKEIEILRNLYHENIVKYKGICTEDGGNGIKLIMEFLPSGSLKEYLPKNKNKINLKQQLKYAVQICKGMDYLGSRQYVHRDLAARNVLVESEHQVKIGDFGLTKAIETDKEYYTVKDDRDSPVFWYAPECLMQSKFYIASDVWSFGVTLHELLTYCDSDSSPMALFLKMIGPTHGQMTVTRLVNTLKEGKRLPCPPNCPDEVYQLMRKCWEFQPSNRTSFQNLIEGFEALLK

As to `CN(C(=O)c1ccc(N2CC(CC#N)(n3cc(-c4ncnc5[nH]ccc45)cn3)C2)c(F)c1)C1CC1` [Example 7, 4-{3-(Cyanomethyl)-3-[4-(7H-pyrrolo[2,3-d]pyrimidin-4-yl)-1H-pyrazol-1-yl]azetidin-1-yl}-N-cyclopropyl-3-fluoro-N-methylbenzamide], the JAK2/JAK1 entry in experiment [1] is “A (A means greater than or equal to 10)”. Further, the results for the IC50 in experiment [2] and in experiment [3] were below 10 nM and at most 10 nM, respectively.

With `CC(C)NC(=O)c1ccc(N2CC(CC#N)(n3cc(-c4ncnc5[nH]ccc45)cn3)C2)cc1F` [Example 14, 4-{3-(Cyanomethyl)-3-[4-(7H-pyrrolo[2,3-d]pyrimidin-4-yl)-1H-pyrazol-1-yl]azetidin-1-yl}-2-fluoro-N-isopropylbenzamide], the IC50 in experiment [2] is below 10 nM.

Take `CC(NC(=O)c1ccc(N2CC(CC#N)(n3cc(-c4ncnc5[nH]ccc45)cn3)C2)cc1)C1CCN(C)CC1` (stereo not drawn) [Example 20, 4-{3-(Cyanomethyl)-3-[4-(7H-pyrrolo[2,3-d]pyrimidin-4-yl)-1H-pyrazol-1-yl]azetidin-1-yl}-N-[1-(1-methylpiperidin-4-yl)ethyl]benzamide]: the JAK2/JAK1 entry in experiment [1] is “A (A means greater than or equal to 10)”. For the same compound, the values for the IC50 in experiment [2] and in experiment [3] were below 10 nM and 10 to 40 nM, respectively.

`C[C@H](NC(=O)c1ccc(N2CC(CC#N)(n3cc(-c4ccnc5[nH]ccc45)cn3)C2)cn1)C1CC1` [Example 2, 5-{3-(Cyanomethyl)-3-[4-(1H-pyrrolo[2,3-b]pyridin-4-yl)-1H-pyrazol-1-yl]azetidin-1-yl}-N-[(1S)-1-cyclopropylethyl]pyridine-2-carboxamide]: in experiment [1], the JAK2/JAK1 result is listed as “A (A means greater than or equal to 10)”. The IC50 in experiment [2] is below 10 nM; in experiment [3], at most 10 nM.

Compound `CC(C)NC(=O)c1cnc(N2CC(CC#N)(n3cc(-c4ccnc5[nH]ccc45)cn3)C2)cn1` [Example 34, 5-{3-(Cyanomethyl)-3-[4-(1H-pyrrolo[2,3-b]pyridin-4-yl)-1H-pyrazol-1-yl]azetidin-1-yl}-N-isopropylpyrazine-2-carboxamide] displayed a half-maximal inhibitory concentration (IC50) in experiment [3] of 10 to 40 nM.

`C[C@H](NC(=O)c1ccc(N2CC(CC#N)(n3cc(-c4ncnc5[nH]ccc45)cn3)C2)cc1)C(F)(F)F` [Example 19, 4-{3-(Cyanomethyl)-3-[4-(7H-pyrrolo[2,3-d]pyrimidin-4-yl)-1H-pyrazol-1-yl]azetidin-1-yl}-N-[(1S)-2,2,2-trifluoro-1-methylethyl]benzamide bis(trifluoroacetate)] displayed an IC50 in experiment [2] below 10 nM.

As to `N#CCC1(n2cc(-c3ccnc4[nH]ccc34)cn2)CN(c2cnc(C(=O)NCC(F)(F)F)cn2)C1` [Example 36, 5-{3-(Cyanomethyl)-3-[4-(1H-pyrrolo[2,3-b]pyridin-4-yl)-1H-pyrazol-1-yl]azetidin-1-yl}-N-(2,2,2-trifluoroethyl)pyrazine-2-carboxamide], the JAK2/JAK1 entry in experiment [1] is given as “A (A means greater than or equal to 10)”. The IC50 in experiment [2] is below 10 nM; in experiment [3] it was 10 to 40 nM.

Take `C[C@@H](NC(=O)c1ccc(N2CC(CC#N)(n3cc(-c4ncnc5[nH]ccc45)cn3)C2)cc1)C(F)(F)F` [Example 23, 4-{3-(Cyanomethyl)-3-[4-(7H-pyrrolo[2,3-d]pyrimidin-4-yl)-1H-pyrazol-1-yl]azetidin-1-yl}-N-[(1R)-2,2,2-trifluoro-1-methylethyl]benzamide bis(trifluoroacetate)]: the 50% inhibitory concentration (IC50) in experiment [2] is below 10 nM.

Consider `N#CCC1(n2cc(-c3ccnc4[nH]ccc34)cn2)CN(c2ccc(C(=O)NC3(C(F)(F)F)CC3)nc2)C1` [Example 40, 5-{3-(Cyanomethyl)-3-[4-(1H-pyrrolo[2,3-b]pyridin-4-yl)-1H-pyrazol-1-yl]azetidin-1-yl}-N-[1-(trifluoromethyl)cyclopropyl]pyridine-2-carboxamide], for which, in experiment [1], the JAK2/JAK1 result is reported as “A (A means greater than or equal to 10)”. Moreover, the half-inhibitory concentration (IC50) in experiment [2] was below 10 nM; in experiment [3], 10 to 40 nM.

Consider `C[C@@H](NC(=O)c1ccc(N2CC(CC#N)(n3cc(-c4ncnc5[nH]ccc45)cn3)C2)c(F)c1)C(F)(F)F` [Example 16, 4-{3-(Cyanomethyl)-3-[4-(7H-pyrrolo[2,3-d]pyrimidin-4-yl)-1H-pyrazol-1-yl]azetidin-1-yl}-3-fluoro-N-[(1R)-2,2,2-trifluoro-1-methylethyl]benzamide], for which the JAK2/JAK1 entry in experiment [1] is recorded as “A (A means greater than or equal to 10)”. For the same compound, the IC50 is below 10 nM in experiment [2] and at most 10 nM in experiment [3].

With `CC[C@@H](C)NC(=O)c1ccc(N2CC(CC#N)(n3cc(-c4ncnc5[nH]ccc45)cn3)C2)cc1` [Example 25, 4-{3-(Cyanomethyl)-3-[4-(7H-pyrrolo[2,3-d]pyrimidin-4-yl)-1H-pyrazol-1-yl]azetidin-1-yl}-N-[(1R)-1-methylpropyl]benzamide bis(trifluoroacetate)], the JAK2/JAK1 result in experiment [1] is listed as “A (A means greater than or equal to 10)”. Besides, the figures for the concentration for half-maximal inhibition (IC50) in experiment [2] and in experiment [3] were below 10 nM and at most 10 nM, respectively.

On to `N#CCC1(n2cc(-c3ncnc4[nH]ccc34)cn2)CN(c2ccc(C(=O)NC3CC(F)(F)C3)nc2)C1` [Example 12, 5-{3-(Cyanomethyl)-3-[4-(7H-pyrrolo[2,3-d]pyrimidin-4-yl)-1H-pyrazol-1-yl]azetidin-1-yl}-N-(3,3-difluorocyclobutyl)pyridine-2-carboxamide], for which the JAK2/JAK1 entry in experiment [1] is “A (A means greater than or equal to 10)”. Further, the half-maximal inhibitory concentration (IC50) in experiment [2] was below 10 nM; in experiment [3] it was at most 10 nM.

With `CCNC(=O)c1ccc(N2CC(CC#N)(n3cc(-c4ncnc5[nH]ccc45)cn3)C2)cn1` [Example 24, 5-{3-(Cyanomethyl)-3-[4-(7H-pyrrolo[2,3-d]pyrimidin-4-yl)-1H-pyrazol-1-yl]azetidin-1-yl}-N-ethylpyridine-2-carboxamide], the JAK2/JAK1 entry in experiment [1] was “A (A means greater than or equal to 10)”. Besides, the results for the IC50 in experiment [2] and in experiment [3] were below 10 nM and at most 10 nM, respectively.

With `CC(C)NC(=O)c1cc(Cl)c(N2CC(CC#N)(n3cc(-c4ncnc5[nH]ccc45)cn3)C2)cc1F` [Example 8, 5-Chloro-4-{3-(cyanomethyl)-3-[4-(7H-pyrrolo[2,3-d]pyrimidin-4-yl)-1H-pyrazol-1-yl]azetidin-1-yl}-2-fluoro-N-isopropylbenzamide], the JAK2/JAK1 result in experiment [1] is “A (A means greater than or equal to 10)”. The IC50 in experiment [2] is below 10 nM; in experiment [3], at most 10 nM.

Regarding `C[C@@H](NC(=O)c1cc(F)c(N2CC(CC#N)(n3cc(-c4ncnc5[nH]ccc45)cn3)C2)cc1F)C1CC1` [Example 21, 4-{3-(Cyanomethyl)-3-[4-(7H-pyrrolo[2,3-d]pyrimidin-4-yl)-1H-pyrazol-1-yl]azetidin-1-yl}-N-[(1R)-1-cyclopropylethyl]-2,5-difluorobenzamide], the JAK2/JAK1 result in experiment [1] is “A (A means greater than or equal to 10)”. Moreover, the 50% inhibitory concentration (IC50) in experiment [2] was below 10 nM; in experiment [3], at most 10 nM.

In experiment [3], `CC(C)NC(=O)c1cnc(N2CC(CC#N)(n3cc(-c4ncnc5[nH]ccc45)cn3)C2)cn1` [Example 18, 5-{3-(Cyanomethyl)-3-[4-(7H-pyrrolo[2,3-d]pyrimidin-4-yl)-1H-pyrazol-1-yl]azetidin-1-yl}-N-isopropylpyrazine-2-carboxamide] showed an IC50 of 10 to 40 nM.

`CC(NC(=O)c1ccc(N2CC(CC#N)(n3cc(-c4ncnc5[nH]ccc45)cn3)C2)cc1)C(F)(F)F` (stereo not drawn) [Example 26, 4-{3-(Cyanomethyl)-3-[4-(7H-pyrrolo[2,3-d]pyrimidin-4-yl)-1H-pyrazol-1-yl]azetidin-1-yl}-N-(2,2,2-trifluoro-1-methylethyl)benzamide] showed a 50% inhibitory concentration (IC50) in experiment [2] below 10 nM.
